# Measurements taken from the supplement of paper PMC4932681.
# Key:
# MCF-7 [1] = experiment: relative IC50 (midpoint of fitted logistic curve, plateau may be below 50% inhibition; CellTiter-Glo viability); higher = less potent; details: 72 h
# Description: (§1)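 FIMM FO2B library drugs were plated at 5 concentrations spanning a 10,000-fold range in 384-well plates. Cells were incubated for 72 h at 37 °C and viability was read by CellTiter-Glo, normalised to DMSO (0% inhibition) and 100 µM benzethonium chloride (100% inhibition). IC50 values come from logistic dose-response fits (Breeze pipeline). Tamoxifen-resistant lines and the 'in 1µM tamoxifen' parental arms were tested in medium with 1 µM 4-OH-tamoxifen.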
# T-47D Tam1 [2] = experiment: as above; details: 4-OH-tamoxifen in medium 1 µM; 72 h
# Description: as §1
# T-47D [3] = experiment: as above; details: 72 h
# Description: as §1
# BT-474 Tam1 [4] = experiment: as above; details: 4-OH-tamoxifen in medium 1 µM; 72 h
# Description: as §1
# MCF-7 Tam1 [5] = experiment: as above; details: 4-OH-tamoxifen in medium 1 µM; 72 h
# Description: as §1
# ZR-75-1 [6] = experiment: as above; details: 72 h
# Description: as §1
# BT-474 [7] = experiment: as above; details: 72 h
# Description: as §1
# BT-474 Tam2 [8] = experiment: as above; details: 4-OH-tamoxifen in medium 1 µM; 72 h
# Description: as §1
# MCF-7 [9] = experiment: drug sensitivity score (DSS) (DSS (dimensionless)); higher = more sensitive; extreme values may be limits of the assay; details: 72 h
# Description: (§2)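 FIMM FO2B library drugs were tested at 5 concentrations (10,000-fold range) for 72 h, with CellTiter-Glo viability normalised to DMSO and benzethonium chloride controls. The Drug Sensitivity Score (DSS) is computed from the fitted logistic dose-response curve (area-based; 0 = inactive). Resistant lines and the 'in 1µM tamoxifen' arms were tested in 1 µM 4-OH-tamoxifen.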
# T-47D Tam1 [10] = experiment: as above; details: 4-OH-tamoxifen in medium 1 µM; 72 h
# Description: as §2
# T-47D Tam2 = experiment: as above; details: 4-OH-tamoxifen in medium 1 µM; 72 h
# Description: as §2
# ZR-75-1 Tam2 [11] = experiment: as above; details: 4-OH-tamoxifen in medium 1 µM; 72 h
# Description: as §2
# T-47D [12] = experiment: as above; details: 72 h
# Description: as §2
# BT-474 Tam1 [13] = experiment: as above; details: 4-OH-tamoxifen in medium 1 µM; 72 h
# Description: as §2
# MCF-7 Tam1 [14] = experiment: as above; details: 4-OH-tamoxifen in medium 1 µM; 72 h
# Description: as §2
# ZR-75-1 [15] = experiment: as above; details: 72 h
# Description: as §2
# BT-474 [16] = experiment: as above; details: 72 h
# Description: as §2
# BT-474 Tam2 [17] = experiment: as above; details: 4-OH-tamoxifen in medium 1 µM; 72 h
# Description: as §2
# ZR-75-1 Tam1 [18] = experiment: as above; details: 4-OH-tamoxifen in medium 1 µM; 72 h
# Description: as §2
# ZR-75-1 Tam1 [19] = experiment: relative IC50 (midpoint of fitted logistic curve, plateau may be below 50% inhibition; CellTiter-Glo viability); higher = less potent; details: 4-OH-tamoxifen in medium 1 µM; 72 h
# Description: as §1
# ZR-75-1 Tam2 [20] = experiment: as above; details: 4-OH-tamoxifen in medium 1 µM; 72 h
# Description: as §1
relative IC50 (MCF-7 [1]; 4-OH-tamoxifen in medium 0 µM),relative IC50 (T-47D Tam1 [2]),relative IC50 (T-47D [3]; 4-OH-tamoxifen in medium 1 µM),relative IC50 (BT-474 Tam1 [4]),relative IC50 (MCF-7 Tam1 [5]),relative IC50 (BT-474 [7]; 4-OH-tamoxifen in medium 0 µM),relative IC50 (BT-474 [7]; 4-OH-tamoxifen in medium 1 µM),relative IC50 (BT-474 Tam2 [8]),relative IC50 (T-47D [3]; 4-OH-tamoxifen in medium 0 µM),relative IC50 (MCF-7 [1]; 4-OH-tamoxifen in medium 1 µM),Structure (SMILES),relative IC50 (ZR-75-1 [6]; 4-OH-tamoxifen in medium 0 µM),drug sensitivity score (MCF-7 [9]; 4-OH-tamoxifen in medium 0 µM),drug sensitivity score (MCF-7 [9]; 4-OH-tamoxifen in medium 1 µM),drug sensitivity score (T-47D Tam1 [10]),drug sensitivity score (T-47D Tam2),drug sensitivity score (ZR-75-1 Tam2 [11]),drug sensitivity score (T-47D [12]; 4-OH-tamoxifen in medium 0 µM),drug sensitivity score (T-47D [12]; 4-OH-tamoxifen in medium 1 µM),drug sensitivity score (BT-474 Tam1 [13]),drug sensitivity score (MCF-7 Tam1 [14]),drug sensitivity score (ZR-75-1 [15]; 4-OH-tamoxifen in medium 0 µM),drug sensitivity score (ZR-75-1 [15]; 4-OH-tamoxifen in medium 1 µM),drug sensitivity score (BT-474 [16]; 4-OH-tamoxifen in medium 0 µM),drug sensitivity score (BT-474 [16]; 4-OH-tamoxifen in medium 1 µM),drug sensitivity score (BT-474 Tam2 [17]),drug sensitivity score (ZR-75-1 Tam1 [18]),relative IC50 (ZR-75-1 [6]; 4-OH-tamoxifen in medium 1 µM),relative IC50 (ZR-75-1 Tam1 [19]),relative IC50 (ZR-75-1 Tam2 [20])
3.26 µM,> 10 µM,> 10 µM,> 10 µM,> 10 µM,> 10 µM,> 10 µM,> 10 µM,–,–,CN(C)CCN1C(=O)c2cccc3cc(N)cc(c23)C1=O [Amonafide],3.51 µM,2.63,0.126,0,0,0.594,0.496,0,0,0,1.49,0.169,0,0,0,0.0369,–,–,–
0.49 µM,0.616 µM,–,> 10 µM,> 10 µM,> 10 µM,> 10 µM,> 10 µM,4.1 µM,–,Nc1nc(Cl)nc2c1ncn2[C@@H]1O[C@H](CO)[C@@H](O)[C@@H]1F [Clofarabine],–,4.41,2.44,5.4,1.77,0.782,1.21,0.982,0,0,0.522,0.104,0,0,0,1.26,–,–,–
> 10 µM,> 10 µM,> 10 µM,–,> 10 µM,> 10 µM,> 10 µM,> 10 µM,> 10 µM,–,C[C@@H]1C[C@H]2[C@@H]3CCC4=CC(=O)C=C[C@]4(C)[C@@]3(F)[C@@H](O)C[C@]2(C)[C@@]1(O)C(=O)CO [Dexamethasone  (Decadron)],> 10 µM,0,1.88,0,0,0.209,0,0,0,0,0,0,0,0,0,0,> 10 µM,> 10 µM,–
–,1.39 µM,> 10 µM,> 10 µM,> 10 µM,2.41 µM,–,> 10 µM,–,> 10 µM,O=c1[nH]c(=O)n([C@H]2C[C@H](O)[C@@H](CO)O2)cc1F [Floxuridine],–,0.48,0,5.88,1.26,4.86,1.05,0,0,0,6.61,0.31,1.78,1.44,0,0.801,–,–,–
–,> 1 µM,> 1 µM,> 1 µM,> 1 µM,> 1 µM,> 1 µM,> 1 µM,0.0604 µM,–,Nc1ccn([C@@H]2O[C@H](CO)[C@@H](O)C2(F)F)c(=O)n1 [Gemcitabine],–,5.69,0.509,0,0.815,0.493,4.36,0,0,0,6.28,0.865,0,0,0,0,–,> 1 µM,–
> 1 µM,–,> 1 µM,0.0894 µM,> 1 µM,0.113 µM,0.0824 µM,0.0659 µM,> 1 µM,–,CS(=O)(=O)CCNCc1ccc(-c2ccc3ncnc(Nc4ccc(OCc5cccc(F)c5)c(Cl)c4)c3c2)o1 [Lapatinib],> 1 µM,0,1.43,4,0.567,0,0,0,11.6,0,0,0,8.29,12.2,12.8,0,> 1 µM,> 1 µM,> 1 µM
1.7 µM,1.82 µM,1.87 µM,> 10 µM,1.17 µM,> 10 µM,–,> 10 µM,–,1.62 µM,C[C@]1(O)C[C@@H](c2nc(-c3ccc4ccc(-c5ccccc5)nc4c3)c3c(N)nccn32)C1 [Linsitinib (OSI-906)],> 10 µM,4.58,5.68,7.18,1.19,0.681,2.48,2.45,0,3.94,0,1.21,0,0.462,0,0.0832,–,–,–
–,3.57 µM,> 10 µM,> 10 µM,> 10 µM,> 10 µM,> 10 µM,> 10 µM,–,–,CO[C@@]12[C@H](COC(N)=O)C3=C(C(=O)C(C)=C(N)C3=O)N1C[C@@H]1N[C@@H]12 [Mitomycin C],–,0.369,0.228,1.35,0.0558,1.28,0.988,0,0,0,0.734,0.75,0,0,0,1.75,–,–,–
